Patent US20170304388A1, “NEW INDICATION OF CARDIOVASCULAR DRUGS FOR PREPARATION OF CANCER INHIBITION PHARMACEUTICAL COMPOSITION” (LAUNX BIOMEDICAL CO., LTD., priority 2014, published 2017)
Counter-ions that a name gives are not always drawn.

Columns and labels:
Assay type in all cases: cell-based
[1] = system: LoVo (Colorectal Adenocarcinoma); assay: Cell viability analysis (WST-1), LoVo; conditions: Homo sapiens, LoVo, 72 h, Table 4, repeated experiments, drug 10 μM, WST-1, read-out: survival rate (viability) of cancer cells, LoVo
T24 = assay: Cell viability analysis (WST-1), T24; conditions: Table 4, repeated experiments, drug 10 μM; for viability at 10 µM: Homo sapiens, T-24, 72 h, read-out: survival rate (viability) of cancer cells, T24
Description: (§1) Subculture the different types of cancer cells. The cancer cells includes lung cancer, gastric cancer, hepatic cancer, colon cancer, skin cancer, cervical cancer, prostate cancer, bladder cancer, breast cancer, leukemia, pancreatic cancer, ovarian cancer, tongue cancer, osteosarcoma, and renal cancer. The cell numbers were counted and reseed as 2×10^6 in cell culture plate/flask. Then, the culture medium for culturing the cell lines was added to a volume of 10 ml, and the cells were cultured for 2-3 days. Then, the cells were suspended for loading into 96-well plates. The cell number was 3000 cells and the volume of the culture medium was 100 ul each well.
(§2) Removing the original culture medium from 96-well plate. Then add 100 μl of commercially drug at a concentration of 10 μM per well. After 72 hours, add the diluted WST-1 reagent to the well with 100 μl/well, and the diluted WST-1 reagent was acquired from the dilution of 9:1 medium and WST-1 stock reagent. Finally, the total volume of each well are 200 μl/well. Culture the 96-well plate at 37° C. for 30 to 90 minutes. Detecting and calculating the survival rate of each cancer cells with an ELISA reader at OD450 nm. The lower viability of cancer cells represents better inhibition effect via the drugs. Otherwise, the higher viability of cancer cells represents worse inhibition effect via the drugs.
(§3) According to the above mentioned cardiovascular drugs for cancer growth inhibition in Table 3, the inventors took the repeat experiments for the cardiovascular drugs to check the growth inhibitory effects of cancer cells by the cardiovascular drugs. […] 4.

TOV-21G = assay: Cell viability analysis (WST-1), TOV-21G; conditions: Table 4, repeated experiments, drug 10 μM; for viability at 10 µM: Homo sapiens, TOV21G, 72 h, read-out: survival rate (viability) of cancer cells, TOV-21G
Description: as §1, §2, §3

[2] = system: HCT116 (Colorectal Carcinoma); assay: Cell viability analysis (WST-1), HCT116; conditions: Homo sapiens, HCT-116, 72 h, Table 4, repeated experiments, drug 10 μM, WST-1, read-out: survival rate (viability) of cancer cells, HCT116
BCC = assay: Cell viability analysis (WST-1), BCC; conditions: Table 4, repeated experiments, drug 10 μM; for viability at 10 µM: BCC, 72 h, read-out: survival rate (viability) of cancer cells, BCC
BxPC-3 = assay: Cell viability analysis (WST-1), BxPC-3; conditions: Table 4, repeated experiments, drug 10 μM; for viability at 10 µM: Homo sapiens, BXPC-3, 72 h, read-out: survival rate (viability) of cancer cells, BxPC-3
Description: as §1, §2, §3

[3] = system: AGS (Gastric Adenocarcinoma); assay: Cell viability analysis (WST-1), AGS; conditions: Table 4, repeated experiments, drug 10 μM; for viability at 10 µM: 72 h, WST-1, read-out: survival rate (viability) of cancer cells, AGS
[4] = system: A375 (Amelanotic Melanoma); assay: Cell viability analysis (WST-1), A375; conditions: Table 4, repeated experiments, drug 10 μM; for viability at 10 µM: Homo sapiens, A-375, 72 h, WST-1, read-out: survival rate (viability) of cancer cells, A375
AsPC-1 = assay: Cell viability analysis (WST-1), AsPC-1; conditions: Homo sapiens, ASPC1, 72 h, Table 4, repeated experiments, drug 10 μM, read-out: survival rate (viability) of cancer cells, AsPC-1
Description: as §1, §2, §3

NIH-OVCAR-3 = assay: Cell viability analysis (WST-1), NIH-OVCAR-3; conditions: Homo sapiens, OVCAR-3, 72 h, Table 4, repeated experiments, drug 10 μM, read-out: survival rate (viability) of cancer cells, NIH-OVCAR-3
Description: as §1, §2, §3

[5] = system: HepG2 (Hepatocellular Carcinoma); assay: Cell viability analysis (WST-1), HepG2; conditions: Table 4, repeated experiments, drug 10 μM; for viability at 10 µM: Homo sapiens, HepG2, 72 h, WST-1, read-out: survival rate (viability) of cancer cells, HepG2
U2OS = assay: Cell viability analysis (WST-1), U2OS; conditions: Table 4, repeated experiments, drug 10 μM; for viability at 10 µM: Homo sapiens, U2OS, 72 h, read-out: survival rate (viability) of cancer cells, U2OS
Description: as §1, §2, §3

[6] = system: TSGH-8301 (Urinary Bladder Carcinoma); assay: Cell viability analysis (WST-1), TSGH-8301; conditions: Table 4, repeated experiments, drug 10 μM; for viability at 10 µM: 72 h, WST-1, read-out: survival rate (viability) of cancer cells, TSGH-8301
[7] = system: MCF7 (Mammary Gland, Adenocarcinoma); assay: Cell viability analysis (WST-1), MCF7; conditions: Homo sapiens, MCF7, 72 h, Table 4, repeated experiments, drug 10 μM, WST-1, read-out: survival rate (viability) of cancer cells, MCF-7
[8] = system: HeLa (Cervix Adenocarcinoma); assay: Cell viability analysis (WST-1), HeLa; conditions: Homo sapiens, HeLa, 72 h, Table 4, repeated experiments, drug 10 μM, WST-1, read-out: survival rate (viability) of cancer cells, HeLa
786-O = assay: Cell viability analysis (WST-1), 786-O; conditions: Table 4, repeated experiments, drug 10 μM; for viability at 10 µM: Homo sapiens, 786-0, 72 h, read-out: survival rate (viability) of cancer cells, 786-O
Description: as §1, §2, §3

Hep3B = assay: Cell viability analysis (WST-1), Hep3B; conditions: Table 4, repeated experiments, drug 10 μM; for viability at 10 µM: Homo sapiens, Hep3B, 72 h, read-out: survival rate (viability) of cancer cells, Hep3B
Description: as §1, §2, §3

[9] = system: A549 (Lung Adenocarcinoma); assay: Cell viability analysis (WST-1), A549; conditions: Table 4, repeated experiments, drug 10 μM; for viability at 10 µM: Homo sapiens, A549, 72 h, WST-1, read-out: survival rate (viability) of cancer cells, A549
[10] = system: MKN-45 (Gastric Adenocarcinoma); assay: Cell viability analysis (WST-1), MKN-45; conditions: Table 4, repeated experiments, drug 10 μM; for viability at 10 µM: Homo sapiens, MKN-45, 72 h, WST-1, read-out: survival rate (viability) of cancer cells, MKN-45
SAS = assay: Cell viability analysis (WST-1), SAS; conditions: Table 4, repeated experiments, drug 10 μM; for viability at 10 µM: 72 h, read-out: survival rate (viability) of cancer cells, SAS
Description: as §1, §2, §3

cancer cell lines = assay: Growth inhibitory effects on the panel of cancer cell lines; conditions: drug 10 μM, 72 hours, WST-1
C-33A = assay: Cell viability analysis (WST-1), C-33A; conditions: Homo sapiens, C-33-A, 72 h, Table 4, repeated experiments, drug 10 μM, read-out: survival rate (viability) of cancer cells, C-33A
Description: as §1, §2, §3

MDA-MB231 = assay: Cell viability analysis (WST-1), MDA-MB231; conditions: Homo sapiens, MDA-MB-231, 72 h, Table 4, repeated experiments, drug 10 μM, read-out: survival rate (viability) of cancer cells, MDA-MB231
[11] = system: PC3 (Prostate Adenocarcinoma); assay: Cell viability analysis (WST-1), PC3; conditions: 72 h, Table 4, repeated experiments, drug 10 μM, WST-1, read-out: survival rate (viability) of cancer cells, PC-3
[12] = system: H1650 (Lung Adenocarcinoma); assay: Cell viability analysis (WST-1), H1650; conditions: Table 4, repeated experiments, drug 10 μM; for viability at 10 µM: Homo sapiens, NCI-H1650, 72 h, WST-1, read-out: survival rate (viability) of cancer cells, H1650

SMILES	viability at 10 µM [1] [%]	viability at 10 µM (T24) [%]	viability at 10 µM (TOV-21G) [%]	viability at 10 µM [2] [%]	viability at 10 µM (BxPC-3) [%]	viability at 10 µM [3] [%]	viability at 10 µM [4] [%]	viability at 10 µM (AsPC-1) [%]	viability at 10 µM (NIH-OVCAR-3) [%]	viability at 10 µM [5] [%]	viability at 10 µM (U2OS) [%]	viability at 10 µM [6] [%]	viability at 10 µM [7] [%]	viability at 10 µM [8] [%]	viability at 10 µM (786-O) [%]	viability at 10 µM (Hep3B) [%]	viability at 10 µM [9] [%]	viability at 10 µM [10] [%]	viability at 10 µM (C-33A) [%]	viability at 10 µM (MDA-MB231) [%]	other results
COc1cc2nc(N3CCN(C(=O)c4ccco4)CC3)nc(N)c2cc1OC [Prazosin HCl]	95.7	88.5	91.9	96.4	54	86.8	77.9	80.4	88.9	87.2	98	99.8	87.6	90.9	79.5	116	72.2	70.1	97.2	85.1	viability at 10 µM (BCC): 73.5%; viability at 10 µM (SAS): 114%; inhibition effect on different cancer cell lines (in words) (cancer cell lines): significant inhibition effect
COC(=O)C1=C(C)NC(C)=C(C(=O)OCC(C)C)C1c1ccccc1[N+](=O)[O-] (centres unmarked) [Nisoldipine (Sular), Nisoldipine]	76.9	67.8	44.4	77.4	75.6	64.7	51.5	78.8	68.1	95.5	69.1	77.9	86.6	76.9	49.5	130	48.9	98	66	74.1	viability at 10 µM (BCC): 58.8%; viability at 10 µM [11]: 98.9%; viability at 10 µM [12]: 70%; viability at 10 µM (SAS): 48.8%
COC(=O)C1=C(C)NC(C)=C(C(=O)OC2CCCN(Cc3ccccc3)C2)C1c1cccc([N+](=O)[O-])c1 (centres unmarked) [Benidipine hydrochloride]	69	61	47.5	90.6	73.8	87.8	76	63.4	85.2	83.6	54.2	81.5	77.3	92.9	78.9	98.8	70.3	92.9	105	77.3	viability at 10 µM [11]: 88.5%; viability at 10 µM [12]: 64.5%; viability at 10 µM (SAS): 64.5%; inhibition effect on different cancer cell lines (in words) (cancer cell lines): significant inhibition effect
CCOC(=O)C1=C(COCCN)NC(C)=C(C(=O)OC)C1c1ccccc1Cl (centres unmarked) [Amlodipine besylate (Norvase), Amlodipine besylate]	85.6	–	–	78.3	–	–	–	87.8	91.6	–	–	–	80.5	–	–	–	–	–	33.7	82.7	survival rate (viability) of cancer cells, T24 (T24; 72 hours): 93.08; survival rate (viability) of cancer cells, TOV-21G (TOV-21G; 72 hours): 93.55; survival rate (viability) of cancer cells, BCC (BCC; 72 hours): 102.9778; survival rate (viability) of cancer cells, BxPC-3 (BxPC-3; 72 hours): 99.11; survival rate (viability) of cancer cells, AGS ([3]; 72 hours, WST-1): 12.18; survival rate (viability) of cancer cells, A375 ([4]; 72 hours, WST-1): 136.6675; survival rate (viability) of cancer cells, HepG2 ([5]; 72 hours, WST-1): 95.01; survival rate (viability) of cancer cells, U2OS (U2OS; 72 hours): 71.06; survival rate (viability) of cancer cells, TSGH-8301 ([6]; 72 hours, WST-1): 36.2492; viability at 10 µM [11]: 73.6%; survival rate (viability) of cancer cells, 786-O (786-O; 72 hours): 73.16; survival rate (viability) of cancer cells, Hep3B (Hep3B; 72 hours): 123.4192; survival rate (viability) of cancer cells, H1650 ([12]; 72 hours, WST-1): 110.2477; survival rate (viability) of cancer cells, A549 ([9]; 72 hours, WST-1): 110.3104; survival rate (viability) of cancer cells, MKN-45 ([10]; 72 hours, WST-1): 86.43; survival rate (viability) of cancer cells, SAS (SAS; 72 hours): 94.7983; inhibition effect on different cancer cell lines (in words) (cancer cell lines): significant inhibition effect
